Results reported in PubChem BioAssay (NCI).
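Grown in 96-well plates, cells were treated for 48 hours with each compound at five concentrations. Insufficient inhibition: endpoint recorded as highest concentration tested. The concentration for 50% growth inhibition is given as GI50. TGI: concentration producing complete growth inhibition.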

Assays:
Assay in all cases: growth of human tumour cells (NCI), 48 h
786-0 renal = test system: 786-0 renal
A498 renal = test system: A498 renal
A549 NSCLC = test system: A549 NSCLC
ACHN renal = test system: ACHN renal
BT-549 breast = test system: BT-549 breast
CAKI-1 renal = test system: CAKI-1 renal
CCRF-CEM leukemia = test system: CCRF-CEM leukemia
COLO 205 colon = test system: COLO 205 colon
DU-145 prostate = test system: DU-145 prostate
EKVX NSCLC = test system: EKVX NSCLC
HCC-2998 colon = test system: HCC-2998 colon
HCT-116 colon = test system: HCT-116 colon
HCT-15 colon = test system: HCT-15 colon
HL-60(TB) leukemia = test system: HL-60(TB) leukemia
HOP-62 NSCLC = test system: HOP-62 NSCLC
HOP-92 NSCLC = test system: HOP-92 NSCLC
HS 578T breast = test system: HS 578T breast
HT29 colon = test system: HT29 colon
IGROV1 ovarian = test system: IGROV1 ovarian
K-562 leukemia = test system: K-562 leukemia
KM12 colon = test system: KM12 colon
LOX IMVI melanoma = test system: LOX IMVI melanoma
M14 melanoma = test system: M14 melanoma
MALME-3M melanoma = test system: MALME-3M melanoma
MCF7 breast = test system: MCF7 breast
MDA-MB-231 breast = test system: MDA-MB-231 breast
MDA-MB-435 = test system: MDA-MB-435
MDA-MB-468 breast = test system: MDA-MB-468 breast
MOLT-4 leukemia = test system: MOLT-4 leukemia
NCI-H226 lung = test system: NCI-H226 lung
NCI-H23 lung = test system: NCI-H23 lung
NCI-H460 lung = test system: NCI-H460 lung
NCI-H522 lung = test system: NCI-H522 lung
NCI/ADR-RES ovarian = test system: NCI/ADR-RES ovarian
OVCAR-3 ovarian = test system: OVCAR-3 ovarian
OVCAR-4 ovarian = test system: OVCAR-4 ovarian
OVCAR-5 ovarian = test system: OVCAR-5 ovarian
OVCAR-8 ovarian = test system: OVCAR-8 ovarian
PC-3 prostate = test system: PC-3 prostate
RPMI-8226 leukemia = test system: RPMI-8226 leukemia
RXF 393 renal = test system: RXF 393 renal
SF-268 CNS = test system: SF-268 CNS
SF-295 CNS = test system: SF-295 CNS
SF-539 CNS = test system: SF-539 CNS
SK-MEL-2 melanoma = test system: SK-MEL-2 melanoma
SK-MEL-28 melanoma = test system: SK-MEL-28 melanoma
SK-MEL-5 melanoma = test system: SK-MEL-5 melanoma
SK-OV-3 ovarian = test system: SK-OV-3 ovarian
SN12C renal = test system: SN12C renal
SNB-19 CNS = test system: SNB-19 CNS
SNB-75 CNS = test system: SNB-75 CNS
SR leukemia = test system: SR leukemia
SW-620 colon = test system: SW-620 colon
T-47D breast = test system: T-47D breast
TK-10 renal = test system: TK-10 renal
U251 CNS = test system: U251 CNS
UACC-257 melanoma = test system: UACC-257 melanoma
UACC-62 melanoma = test system: UACC-62 melanoma
UO-31 renal = test system: UO-31 renal

Question: For `CN(C)c1nc(NCCNS(=O)(=O)c2ccc(C(=O)/C=C/c3ccccc3)cc2)nc(Nc2ccc(F)cc2)n1`, which GI50 (786-0 renal) is on record?
Answer: 11.2 µM

Question: And the TGI (786-0 renal)?
Answer: 25.3 µM

Question: What about the GI50 (A498 renal) of the same compound?
Answer: 11.6 µM

Question: And the TGI (A498 renal)?
Answer: 24 µM

Question: And the GI50 (A549 NSCLC)?
Answer: 8.33 µM

Question: And the TGI (A549 NSCLC)?
Answer: 26 µM

Question: And the GI50 (ACHN renal)?
Answer: 4.92 µM

Question: And the TGI (ACHN renal)?
Answer: 17.3 µM

Question: What about the GI50 (BT-549 breast) of the same compound?
Answer: 13.9 µM

Question: What about the TGI (BT-549 breast) of the same compound?
Answer: 27.5 µM

Question: And the GI50 (CAKI-1 renal)?
Answer: 4.75 µM

Question: And the TGI (CAKI-1 renal)?
Answer: 19.7 µM

Question: And the GI50 (CCRF-CEM leukemia)?
Answer: 6.59 µM

Question: What about the TGI (CCRF-CEM leukemia) of the same compound?
Answer: > 100 µM

Question: What about the GI50 (COLO 205 colon) of the same compound?
Answer: 5.46 µM

Question: What about the TGI (COLO 205 colon) of the same compound?
Answer: 20.8 µM

Question: And the GI50 (DU-145 prostate)?
Answer: 12.1 µM

Question: And the TGI (DU-145 prostate)?
Answer: 25.3 µM

Question: And the GI50 (EKVX NSCLC)?
Answer: 4.48 µM

Question: What about the TGI (EKVX NSCLC) of the same compound?
Answer: 14.8 µM

Question: What about the GI50 (HCC-2998 colon) of the same compound?
Answer: 2.35 µM

Question: What about the TGI (HCC-2998 colon) of the same compound?
Answer: 5.46 µM

Question: And the GI50 (HCT-116 colon)?
Answer: 1.72 µM

Question: And the TGI (HCT-116 colon)?
Answer: 3.24 µM

Question: And the GI50 (HCT-15 colon)?
Answer: 2.04 µM

Question: And the TGI (HCT-15 colon)?
Answer: 3.84 µM

Question: And the GI50 (HL-60(TB) leukemia)?
Answer: 3.88 µM

Question: And the TGI (HL-60(TB) leukemia)?
Answer: 29.3 µM

Question: What about the GI50 (HOP-62 NSCLC) of the same compound?
Answer: 11.8 µM

Question: And the TGI (HOP-62 NSCLC)?
Answer: 26.8 µM

Question: What about the GI50 (HOP-92 NSCLC) of the same compound?
Answer: 8.1 µM

Question: And the TGI (HOP-92 NSCLC)?
Answer: 23.4 µM

Question: And the GI50 (HS 578T breast)?
Answer: 7.39 µM

Question: What about the TGI (HS 578T breast) of the same compound?
Answer: 57.8 µM

Question: What about the GI50 (HT29 colon) of the same compound?
Answer: 3.08 µM

Question: What about the TGI (HT29 colon) of the same compound?
Answer: 10.6 µM

Question: What about the GI50 (IGROV1 ovarian) of the same compound?
Answer: 11.2 µM

Question: And the TGI (IGROV1 ovarian)?
Answer: 23.8 µM

Question: What about the GI50 (K-562 leukemia) of the same compound?
Answer: 3.34 µM

Question: And the TGI (K-562 leukemia)?
Answer: 18.6 µM

Question: What about the GI50 (KM12 colon) of the same compound?
Answer: 3.74 µM

Question: What about the TGI (KM12 colon) of the same compound?
Answer: 14 µM

Question: What about the GI50 (LOX IMVI melanoma) of the same compound?
Answer: 2.47 µM

Question: What about the TGI (LOX IMVI melanoma) of the same compound?
Answer: 7.14 µM

Question: And the GI50 (M14 melanoma)?
Answer: 5.98 µM

Question: And the TGI (M14 melanoma)?
Answer: 20 µM

Question: And the GI50 (MALME-3M melanoma)?
Answer: 12.7 µM

Question: And the TGI (MALME-3M melanoma)?
Answer: 26.3 µM

Question: What about the GI50 (MCF7 breast) of the same compound?
Answer: 1.99 µM

Question: What about the TGI (MCF7 breast) of the same compound?
Answer: 4.05 µM

Question: And the GI50 (MDA-MB-231 breast)?
Answer: 4.84 µM

Question: What about the TGI (MDA-MB-231 breast) of the same compound?
Answer: 18.1 µM

Question: And the GI50 (MDA-MB-435)?
Answer: 7.44 µM

Question: What about the TGI (MDA-MB-435) of the same compound?
Answer: 23 µM

Question: And the GI50 (MDA-MB-468 breast)?
Answer: 2.84 µM

Question: And the TGI (MDA-MB-468 breast)?
Answer: 12.8 µM

Question: And the GI50 (MOLT-4 leukemia)?
Answer: 3.22 µM

Question: What about the TGI (MOLT-4 leukemia) of the same compound?
Answer: 29.6 µM

Question: What about the GI50 (NCI-H226 lung) of the same compound?
Answer: 5.22 µM

Question: What about the TGI (NCI-H226 lung) of the same compound?
Answer: 19.8 µM

Question: And the GI50 (NCI-H23 lung)?
Answer: 10.1 µM

Question: What about the TGI (NCI-H23 lung) of the same compound?
Answer: 22.5 µM

Question: And the GI50 (NCI-H460 lung)?
Answer: 4.34 µM

Question: And the TGI (NCI-H460 lung)?
Answer: 16.8 µM

Question: And the GI50 (NCI-H522 lung)?
Answer: 5.47 µM

Question: What about the TGI (NCI-H522 lung) of the same compound?
Answer: 20.4 µM

Question: And the GI50 (NCI/ADR-RES ovarian)?
Answer: 7.33 µM

Question: What about the TGI (NCI/ADR-RES ovarian) of the same compound?
Answer: 21.1 µM

Question: And the GI50 (OVCAR-3 ovarian)?
Answer: 8.59 µM

Question: What about the TGI (OVCAR-3 ovarian) of the same compound?
Answer: 21.4 µM

Question: And the GI50 (OVCAR-4 ovarian)?
Answer: 4.39 µM

Question: And the TGI (OVCAR-4 ovarian)?
Answer: 23.1 µM

Question: What about the GI50 (OVCAR-5 ovarian) of the same compound?
Answer: 13.3 µM

Question: And the TGI (OVCAR-5 ovarian)?
Answer: 26.6 µM

Question: And the GI50 (OVCAR-8 ovarian)?
Answer: 12.2 µM

Question: What about the TGI (OVCAR-8 ovarian) of the same compound?
Answer: 26.4 µM

Question: And the GI50 (PC-3 prostate)?
Answer: 4.39 µM

Question: What about the TGI (PC-3 prostate) of the same compound?
Answer: 20.6 µM

Question: What about the GI50 (RPMI-8226 leukemia) of the same compound?
Answer: 3.04 µM

Question: And the TGI (RPMI-8226 leukemia)?
Answer: > 100 µM

Question: And the GI50 (RXF 393 renal)?
Answer: 2.94 µM

Question: And the TGI (RXF 393 renal)?
Answer: 14.6 µM

Question: And the GI50 (SF-268 CNS)?
Answer: 5.65 µM

Question: And the TGI (SF-268 CNS)?
Answer: 22.2 µM

Question: What about the GI50 (SF-295 CNS) of the same compound?
Answer: 6.96 µM

Question: And the TGI (SF-295 CNS)?
Answer: 19.3 µM

Question: What about the GI50 (SF-539 CNS) of the same compound?
Answer: 12 µM

Question: And the TGI (SF-539 CNS)?
Answer: 24.5 µM

Question: What about the GI50 (SK-MEL-2 melanoma) of the same compound?
Answer: 10.6 µM

Question: And the TGI (SK-MEL-2 melanoma)?
Answer: 24.3 µM

Question: What about the GI50 (SK-MEL-28 melanoma) of the same compound?
Answer: 10.2 µM

Question: What about the TGI (SK-MEL-28 melanoma) of the same compound?
Answer: 22.2 µM

Question: What about the GI50 (SK-MEL-5 melanoma) of the same compound?
Answer: 4.7 µM

Question: And the TGI (SK-MEL-5 melanoma)?
Answer: 16.9 µM

Question: What about the GI50 (SK-OV-3 ovarian) of the same compound?
Answer: 13 µM

Question: What about the TGI (SK-OV-3 ovarian) of the same compound?
Answer: 29.7 µM

Question: And the GI50 (SN12C renal)?
Answer: 8.2 µM

Question: And the TGI (SN12C renal)?
Answer: 20.7 µM

Question: What about the GI50 (SNB-19 CNS) of the same compound?
Answer: 10.4 µM

Question: What about the TGI (SNB-19 CNS) of the same compound?
Answer: 23 µM

Question: And the GI50 (SNB-75 CNS)?
Answer: 3.23 µM

Question: What about the TGI (SNB-75 CNS) of the same compound?
Answer: 33.4 µM

Question: What about the GI50 (SR leukemia) of the same compound?
Answer: 2.58 µM

Question: What about the TGI (SR leukemia) of the same compound?
Answer: 8.25 µM

Question: What about the GI50 (SW-620 colon) of the same compound?
Answer: 5.56 µM

Question: What about the TGI (SW-620 colon) of the same compound?
Answer: 20.4 µM

Question: What about the GI50 (T-47D breast) of the same compound?
Answer: 3.45 µM

Question: What about the TGI (T-47D breast) of the same compound?
Answer: 14.2 µM

Question: What about the GI50 (TK-10 renal) of the same compound?
Answer: 14.6 µM

Question: And the TGI (TK-10 renal)?
Answer: 30.9 µM

Question: And the GI50 (U251 CNS)?
Answer: 10.4 µM

Question: And the TGI (U251 CNS)?
Answer: 24.5 µM

Question: What about the GI50 (UACC-257 melanoma) of the same compound?
Answer: 12.6 µM

Question: What about the TGI (UACC-257 melanoma) of the same compound?
Answer: 27.8 µM

Question: What about the GI50 (UACC-62 melanoma) of the same compound?
Answer: 6.68 µM

Question: What about the TGI (UACC-62 melanoma) of the same compound?
Answer: 20.3 µM

Question: And the GI50 (UO-31 renal)?
Answer: 4.6 µM

Question: And the TGI (UO-31 renal)?
Answer: 17.2 µM
